In ChEMBL document CHEMBL1144061, “Biologically active triterpene saponins from callus tissue of Polygala amarella” (J Nat Prod, 1999):

Experiments:
[1] = Cytotoxicity against human granulocytes upto 100 ug/mL
[2] = Induction of human granulocyte phagocytosis at 10 to 100 ug/mL; type: functional

Q: Which results are given for `C[C@H]1O[C@@H](OC(=O)[C@]23CCC(C)(C)C[C@H]2C2=CC[C@@H]4[C@@]5(C)C[C@H](O)C(O[C@@H]6O[C@H](CO)[C@@H](O)[C@H](O)[C@H]6O)[C@@](C)(C(=O)O)[C@@H]5CC[C@@]4(C)[C@]2(CO)CC3)[C@H](O[C@@H]2O[C@H](C)[C@H](O[C@@H]3OC[C@@H](O)[C@H](O[C@@H]4O[C@H](CO)[C@H](O)[C@H](O)[C@H]4O)[C@H]3O)[C@@H](O)[C@H]2O)[C@@H](O[C@@H]2O[C@H](CO)[C@@H](O)[C@H](O)[C@H]2O)[C@H]1O` (some centres not stated)?
A: Activity [1]: Non-toxic; Activity [2]: 60%
